By melting point is commonly meant the temperature of the solid-liquid transition.

The values that follow come from patent US20100041892A1, “Therapeutic agent for diabetes” (priority 2005, published 2010).

The compound `COCCOc1ccc(CCCOC(=O)N2CCOCC2)c(Oc2ncc(C(F)(F)F)cc2Cl)c1` [Example 48, 3-[2-{[3-chloro-5-(trifluoromethyl)pyridin-2-yl]oxy}-4-(2-methoxyethoxy)phenyl]propyl morpholine-4-carboxylate] had a melting point of 82.3 to 82.4 °C.

In turn, `CCCCNC(=O)OCCCc1ccc(OCCOC)cc1Oc1ncc(C(F)(F)F)cc1Cl` [Example 49, 3-[2-{[3-chloro-5-(trifluoromethyl)pyridin-2-yl]oxy}-4-(2-methoxyethoxy)phenyl]propyl butylcarbamate] displayed a melting point of 91.7 to 91.8 °C.

Consider `CCCCN(C)C(=O)OCCCc1ccc(OCCOC)cc1Oc1ncc(C(F)(F)F)cc1Cl` [Example 50, 3-[2-{[3-chloro-5-(trifluoromethyl)pyridin-2-yl]oxy}-4-(2-methoxyethoxy)phenyl]propyl butyl(methyl)carbamate], for which the melting point lay within 54 to 55.2 °C.

The compound `CCN(CC)C(=O)COc1ccc(CCCOC(=O)NCC2CC2)c(Oc2ncc(C(F)(F)F)cc2Cl)c1` [Example 52, 3-{2-{[3-chloro-5-(trifluoromethyl)pyridin-2-yl]oxy}-4-[2-(diethylamino)-2-oxoethoxy]phenyl}propyl (cyclopropylmethyl)carbamate] displayed a melting point of 94 to 94.5 °C.

With `CCOC(=O)COc1ccc(CCCOC(=O)NCC2CC2)c(Oc2ncc(C(F)(F)F)cc2Cl)c1` [Example 53, ethyl {3-{[3-chloro-5-(trifluoromethyl)-pyridin-2-yl]oxy}-4-[3-({[(cyclopropylmethyl)amino]carbonyl}-oxy)propyl]phenoxy}acetate], the melting point was 112.8 to 113 °C.

Turning to `COCCCNC(=O)OCCCc1ccc(OCCOC)cc1Oc1ncc(C(F)(F)F)cc1Cl` [Example 55, 3-[2-{[3-chloro-5-(trifluoromethyl)pyridin-2-yl]oxy}-4-(2-methoxyethoxy)phenyl]propyl (3-methoxypropyl)carbamate], the melting point was 83.5 to 85 °C.

For `CCOCCNC(=O)OCCCc1ccc(OCCOC)cc1Oc1ncc(C(F)(F)F)cc1Cl` [Example 56, 3-[2-{[3-chloro-5-(trifluoromethyl)pyridin-2-yl]oxy}-4-(2-methoxyethoxy)phenyl]propyl (2-ethoxyethyl)carbamate], the melting point fell in the range of 66 to 68 °C.

In turn, `COCCCS(=O)(=O)NC(=O)/C=C/c1ccc(OC(C)C)cc1Oc1ncc(C(F)(F)F)cc1Cl` [Example 57, (2E)-3-[2-{[3-chloro-5-(trifluoromethyl)pyridin-2-yl]oxy}-4-isopropoxyphenyl]-N-[(3-methoxypropyl)sulfonyl]acrylamide] showed a melting point of 129.5 to 130 °C.

In the case of `COCCOc1ccc(COC(=O)NS(=O)(=O)CCC(C)C)c(Oc2ncc(C(F)(F)F)cc2Cl)c1` [Example 59, 2-{[3-chloro-5-(trifluoromethyl)pyridin-2-yl]oxy}-4-(2-methoxyethoxy)benzyl [(3-methylbutyl)sulfonyl]carbamate], the melting point fell in the range of 122 to 124 °C.

In the case of `COCCOc1ccc(COC(=O)NS(=O)(=O)NCC(C)C)c(Oc2ncc(C(F)(F)F)cc2Cl)c1` [Example 60, 2-{[3-chloro-5-(trifluoromethyl)pyridin-2-yl]oxy}-4-(2-methoxyethoxy)benzyl [(isobutylamino)sulfonyl]carbamate], the melting point is 160 to 161 °C.

For the compound `CCCCCNS(=O)(=O)NC(=O)OCc1ccc(OCCOC)cc1Oc1ncc(C(F)(F)F)cc1Cl` [Example 61, 2-{[3-chloro-5-(trifluoromethyl)pyridin-2-yl]oxy}-4-(2-methoxyethoxy)benzyl [(pentylamino)sulfonyl]carbamate], the melting point lay within 153 to 155 °C.

As to `CCCCCS(=O)(=O)NC(=O)OCc1ccc(OCCCC)cc1Oc1ncc(C(F)(F)F)cc1Cl` [Example 62, 4-butoxy-2-{[3-chloro-5-(trifluoromethyl)pyridin-2-yl]oxy}benzyl (pentylsulfonyl)carbamate], the melting point lay in the range of 124.5 to 125.5 °C.

In the case of `CCCCCS(=O)(=O)NC(=O)OCc1ccc(OC(C)C)cc1Oc1ncc(C(F)(F)F)cc1Cl` [Example 63, 2-{[3-chloro-5-(trifluoromethyl)pyridin-2-yl]oxy}-4-isopropoxybenzyl (pentylsulfonyl)carbamate], the melting point fell in the range of 70 to 73 °C.

As to `COCCOc1ccc(COC(=O)NS(=O)(=O)c2ccc(Cl)cc2)c(Oc2ncc(C(F)(F)F)cc2Cl)c1` [Example 65, 2-{[3-chloro-5-(trifluoromethyl)pyridin-2-yl]oxy}-4-(2-methoxyethoxy)benzyl [(4-chlorophenyl)sulfonyl]carbamate], the melting point lay within 112 to 115 °C.

Consider `CCCCNS(=O)(=O)NC(=O)OCc1ccc(OCCOC)cc1Oc1ncc(C(F)(F)F)cc1Cl` [Example 66, 2-{[3-chloro-5-(trifluoromethyl)pyridin-2-yl]oxy}-4-(2-methoxyethoxy)benzyl [(butylamino)sulfonyl]carbamate], for which the melting point lay within 164 to 165 °C.

In turn, `COCCOc1ccc(COC(=O)NS(=O)(=O)NCC2CC2)c(Oc2ncc(C(F)(F)F)cc2Cl)c1` [Example 67, 2-{[3-chloro-5-(trifluoromethyl)pyridin-2-yl]oxy}-4-(2-methoxyethoxy)benzyl {[(cyclopropylmethyl)amino]sulfonyl}carbamate] yielded a melting point of 150 to 150.5 °C.

Regarding `COCCOc1ccc(COC(=O)NS(=O)(=O)Nc2ccc(Cl)cc2)c(Oc2ncc(C(F)(F)F)cc2Cl)c1` [Example 68, 2-{[3-chloro-5-(trifluoromethyl)pyridin-2-yl]oxy}-4-(2-methoxyethoxy)benzyl {[(4-chlorophenyl)amino]sulfonyl}carbamate], the melting point was 159 °C (dec.).

For the compound `COCCOc1ccc(CCC(=O)NS(N)(=O)=O)c(Oc2ncc(C(F)(F)F)cc2Cl)c1` [Example 73, N-(aminosulfonyl)-3-[2-{[3-chloro-5-(trifluoromethyl)pyridin-2-yl]oxy}-4-(2-methoxyethoxy)phenyl]propanamide], the melting point lay in the range of 158 to 159 °C.

In turn, `CCCCCS(=O)(=O)NC(=O)CCCc1ccc(OCCOC)cc1Oc1ncc(C(F)(F)F)cc1Cl` [Example 74, 4-[2-{[3-chloro-5-(trifluoromethyl)pyridin-2-yl]oxy}-4-(2-methoxyethoxy)phenyl]-N-(pentylsulfonyl)butanamide] had a melting point of 96 to 97 °C.

On to `COCCCNS(=O)(=O)NC(=O)OCc1ccc(OCCOC)cc1Oc1ncc(C(F)(F)F)cc1Cl` [Example 75, 2-{[3-chloro-5-(trifluoromethyl)pyridin-2-yl]oxy}-4-(2-methoxyethoxy)benzyl {[(3-methoxypropyl)amino]sulfonyl}carbamate], for which the melting point was in the range of 149 to 149.5 °C.

In turn, `CCOCCNS(=O)(=O)NC(=O)OCc1ccc(OCCOC)cc1Oc1ncc(C(F)(F)F)cc1Cl` [Example 76, 2-{[3-chloro-5-(trifluoromethyl)pyridin-2-yl]oxy}-4-(2-methoxyethoxy)benzyl {[(2-ethoxyethyl)amino]sulfonyl}carbamate] yielded a melting point of 142.5 to 143 °C.

For `CCCCCS(=O)(=O)NC(=O)CC(C)c1ccc(OCCOC)cc1Oc1ncc(C(F)(F)F)cc1Cl` (centres unmarked) [Example 77, 3-[2-{[3-chloro-5-(trifluoromethyl)pyridin-2-yl]oxy}-4-(2-methoxyethoxy)phenyl]-N-(pentylsulfonyl)butanamide], the melting point was 136.9 to 137.1 °C.

As for `COCCCS(=O)(=O)NC(=O)CC(C)c1ccc(OCCOC)cc1Oc1ncc(C(F)(F)F)cc1Cl` (centres unmarked) [Example 78, 3-[2-{[3-chloro-5-(trifluoromethyl)pyridin-2-yl]oxy}-4-(2-methoxyethoxy)phenyl]-N-[(3-methoxypropyl)sulfonyl]butanamide], the melting point lay in the range of 107 to 109 °C.

`CCCCCS(=O)(=O)NC(=O)CCc1cc(OC(C)C)nn1Cc1ccc(F)cc1F` [Example 80, 3-[1-(2,4-difluorobenzyl)-3-isopropoxy-1H-pyrazol-5-yl]-N-(pentylsulfonyl)propanamide]: the melting point was 107 to 108 °C.

The compound `CC(C)Oc1cc(CCC(=O)NS(=O)(=O)c2ccccc2)n(Cc2ccc(Cl)cc2Cl)n1` [Example 82, 3-[1-(2,4-dichlorobenzyl)-3-isopropoxy-1H-pyrazol-5-yl]-N-(phenylsulfonyl)propanamide] had a melting point of 184 to 185 °C.

In the case of `CC(C)Oc1cc(CCC(=O)NS(=O)(=O)c2ccc(C(F)(F)F)cc2)n(Cc2ccc(Cl)cc2Cl)n1` [Example 83, 3-[1-(2,4-dichlorobenzyl)-3-isopropoxy-1H-pyrazol-5-yl]-N-{[4-(trifluoromethyl)phenyl]sulfonyl}propanamide], the melting point was 167 to 169 °C.

The compound `CCCS(=O)(=O)NC(=O)CCc1cc(OC(C)C)nn1Cc1ccc(Cl)cc1Cl` [Example 85, 3-[1-(2,4-dichlorobenzyl)-3-isopropoxy-1H-pyrazol-5-yl]-N-(propylsulfonyl)propanamide] gave a melting point of 124 to 126 °C.

For `CCCCCCS(=O)(=O)NC(=O)CCc1cc(OC(C)C)nn1Cc1ccc(Cl)cc1Cl` [Example 87, 3-[1-(2,4-dichlorobenzyl)-3-isopropoxy-1H-pyrazol-5-yl]-N-(hexylsulfonyl)propanamide], the melting point was in the range of 103 to 106 °C.

In turn, `Cc1ccccc1S(=O)(=O)NC(=O)CCc1cc(OC(C)C)nn1Cc1ccc(Cl)cc1Cl` [Example 88, 3-[1-(2,4-dichlorobenzyl)-3-isopropoxy-1H-pyrazol-5-yl]-N-[(2-methylphenyl)sulfonyl]propanamide] returned a melting point of 165 to 166 °C.

In the case of `CC(C)Oc1cc(CCC(=O)NS(=O)(=O)C(C)C)n(Cc2ccc(Cl)cc2Cl)n1` [Example 89, 3-[1-(2,4-dichlorobenzyl)-3-isopropoxy-1H-pyrazol-5-yl]-N-(isopropylsulfonyl)propanamide], the melting point lay in the range of 135 to 136 °C.

As to `CC(C)Oc1cc(CCC(=O)NS(=O)(=O)C2CCCCC2)n(Cc2ccc(Cl)cc2Cl)n1` [Example 90, N-(cyclohexylsulfonyl)-3-[1-(2,4-dichlorobenzyl)-3-isopropoxy-1H-pyrazol-5-yl]propanamide], the melting point lay within 137 to 138 °C.

Turning to `CC(C)Oc1cc(CCC(=O)NS(=O)(=O)CCCc2ccccc2)n(Cc2ccc(Cl)cc2Cl)n1` [Example 91, 3-[1-(2,4-dichlorobenzyl)-3-isopropoxy-1H-pyrazol-5-yl]-N-[(3-phenylpropyl)sulfonyl]propanamide], the melting point lay within 132 to 134 °C.
